Ten compounds from patent publication US9730949B2, “Angiotensin converting enzyme inhibitors for treating optic neuropathy or congenital optic atrophy” (priority 2012, dated 2017) can be followed below.

Format in all cases: in vivo, human
The subject of assay [1] is optic neuropathy or congenital optic atrophy. The assay can be described thus: Other ACE inhibitors in patients with the same optic neuropathy or congenital optic atrophy as in Examples 1 to 5. Particulars: patients as in Examples 1 to 5, similar procedures; present tense, no data. As for the experimental part:
Fosinoprilate, trandolaprilate, moexiprilate, quinaprilate, enalaprilate, perindoprilate and benazeprilate, as well as captopril and lisinopril are also tested in patients having the same optic neuropathy or congenital optic atrophy as in Examples 1 to 5 using similar procedures.

For assay [2], the system named is toxication by ingestion of methyl alcohol. The assay can be described thus: Visual acuity after treatment in patients with toxication by ingestion of methyl alcohol. As for the experimental part:
2 patients (SR and WW) suffering from toxication by ingestion of methyl alcohol has bad visual acuity. FIG. 6 is a fluoangiography of SR prior to treatment. FIG. 7 is an optical coherence tomography scan of SR before treatment.
One patient was administered 2% (w/v) ramprilate in an eye drop formulation twice a day for 3 months, while the other patient was administered 2% (w/v) ramprilate in via an intravitreal injection ramiprilate in a quantity of 0.1 to 0.2 ml, which was injected once every 15 days for a total of three injections.

For another assay, the system named is Leber's optic neuropathy. The assay can be described thus: Visual acuity after treatment in patients with Leber's optic neuropathy. Particulars: intravitreal 2% (w/v), 0.1 to 0.2 ml, once every 15 days, three injections. As for the experimental part:
Patient two has Leber's optic neuropathy with a visual acuity of 1/20 in the right eye and zero in the left eye prior to treatment.
An intraocular injection (intravitreal) of 2% (w/v) ramiprilate in a quantify of 0.1 to 0.2 ml, which was injected once every 15 days for a total of three injections. The visual acuity was measured after this treatment. The results of 2/10 in the right eye and 1/20 in the left eye were achieved,
Patient one has Leber's optic neuropathy and had only bright perceptions in two eyes. Visual acuity was measured prior to treatment.
An intraocular injection (intravitreal) of 2% (w/v) ramiprilate in a quantity of 0.1 to 0.2 ml, which was infected once every 15 days for a total of three injections. The visual acuity was measured after this treatment. The visual acuity was 2/10 for both eyes.

Assay [3] concerns bilateral asymmetric anterior optic neuropathy ischemia. Briefly: Visual acuity after treatment in a patient with anterior optic neuropathy ischemia. Particulars: patient three; intravitreal 2% (w/v), 0.1 to 0.2 ml, once every 15 days, three injections; 1/10 in both eyes prior to treatment. As for the experimental part: FIGS. 3 and 4 show a fluoangiography of MM before treatment.
MM was administered an intravitreal injection of 2% (w/v) ramiprilate in a quantify of 0.1 to 0.2 ml, which was injected once every 15 days for a total of three injections. The visual acuity was then taken and was 5/10 for both eyes.

Assay [4] deals with central artery occlusion of the retina. The assay can be described thus: Visual acuity after treatment in patients with central artery occlusion of the retina. The procedure: FIG. 5 is a fundus photograph of patient four before treatment.
One was administered 2% (w/v) ramprilate in an eye drop formulation twice a day for 3 months, while the other was administered 2% (w/v) ramprilate in via an intravitreal injection ramiprilate in a quantity of 0.1 to 0.2 ml, which was injected once every 15 days for a total of three injections.

The test system of assay [5] is dominant recessive congenital optic atrophy. The assay can be described thus: Visual acuity after treatment in patients with dominant recessive congenital optic atrophy. Particulars: 2 patients; eye drops 2% (w/v), 2 times per day for 3 months. The procedure: 2 patients that have dominant recessive congenital optic atrophy had bad visual acuity.
These 2 patients were treated with eye drops containing 2% (w/v) ramiprilate 2 times per day for a duration of 3 months.

For `O=C(O)CN1C(=O)[C@@H](N[C@@H](CCc2ccccc2)C(=O)O)CCc2ccccc21` [benazeprilate], the visual acuity entry in assay [1] is reported as “improvement in visual acuity”.
On to `O=C(O)[C@@H]1C[C@@H](C2CCCCC2)CN1C(=O)CP(=O)(O)CCCCc1ccccc1` [Fosinoprilate, fosinoprilate], for which, in assay [1], the visual acuity entry is “improvement in visual acuity”.
Same read-out and setting: the entry for `C[C@H](CS)C(=O)N1CCC[C@H]1C(=O)O` [captopril] is “improvement in visual acuity”; for `NCCCC[C@H](N[C@@H](CCc1ccccc1)C(=O)O)C(=O)N1CCC[C@H]1C(=O)O` [lisinopril] it is “improvement in visual acuity”.
Turning to `C[C@H](N[C@@H](CCc1ccccc1)C(=O)O)C(=O)N1[C@H](C(=O)O)C[C@H]2CCCC[C@@H]21` [trandolaprilate], the visual acuity entry in assay [1] is “improvement in visual acuity”.
On to `COc1cc2c(cc1OC)CN(C(=O)[C@H](C)N[C@@H](CCc1ccccc1)C(=O)O)[C@H](C(=O)O)C2` [moexiprilate], for which the visual acuity entry in assay [1] is “improvement in visual acuity”.
Same read-out and setting: in the case of `CCC[C@H](N[C@@H](C)C(=O)N1[C@H](C(=O)O)C[C@@H]2CCCC[C@@H]21)C(=O)O` [perindoprilate] it was “improvement in visual acuity”.
As for `C[C@H](N[C@@H](CCc1ccccc1)C(=O)O)C(=O)N1CCC[C@H]1C(=O)O` [enalaprilate], in assay [1], the visual acuity result was “improvement in visual acuity”.
Consider `C[C@H](N[C@@H](CCc1ccccc1)C(=O)O)C(=O)N1Cc2ccccc2C[C@H]1C(=O)O` [quinaprilate], for which the visual acuity entry in assay [1] was “improvement in visual acuity”.
`CC(NC(CCc1ccccc1)C(=O)O)C(=O)N1C(C(=O)O)CC2CCCC21` (stereo not drawn) [ramiprilate]: the “vision as indicated by visual acuity” value is on record as “improvement in vision” in assay [2] (one patient (beta), eye drop formulation 2% (w/v) twice a day for 3 months); “improvement in vision” in assay [2] (other patient (beta), intravitreal 2% (w/v), 0.1 to 0.2 ml, once every 15 days, three injections); “improvement in vision” in assay [4] (one patient (alpha), eye drop formulation 2% (w/v) twice a day for 3 months); “improvement in vision” in assay [4] (other patient (alpha), intravitreal 2% (w/v), 0.1 to 0.2 ml, once every 15 days, three injections); “greatly improved” in assay [5]. For the same compound, the “visual acuity, both eyes, after treatment” value in the assay with Leber's optic neuropathy (patient one, only bright perceptions in two eyes before) is on record as 2/10; in assay [3], 5/10. Further, the “visual acuity, right eye, after treatment” value with Leber's optic neuropathy (patient two, 1/20 prior to treatment) is listed as 2/10. Further, the “visual acuity, left eye, after treatment” value in the assay with Leber's optic neuropathy (patient two, zero prior to treatment) is recorded as 1/20.
